Here are results for five compounds from patent US6585961B1, “Antimicrobial compositions” (priority 2001, dated 2003).

Data set [1] can be described thus: Hydrophile-lipophile balance (HLB) of surfactant. The note with it: for HLB Value: surfactants (2 wt. %) found to give the desired results; for HLB: Table I. The format is physicochemical. The text has this: An old and well-accepted method to determine functionality of surfactants is known as the hydrophile -lipophile balance (HLB). The HLB is an expression of the relative simultaneous attraction of a surfactant for water and for oil. The HLB of a surfactant determines the type of an emulsion that tends to be formed. It is an indicative of the behavior characteristics and not an indication of surfactant efficiency.
When two or more surfactants are to be blended the HLB of the combinations is easily calculated. If x is the proportion of one surfactant having an HLB of A, and the other surfactant has an HLB of B, the HLB of the combination can be expressed for all practical purposes as xA+(1−x)B. This is a straight-line relationship. If the value of this 16 or greater, then most likely the combination will be workable.

Data set [2] in a line: Appearance and particle size of essential oil emulsion with surfactant. The format is physicochemical. The note with it: Table I; for Appearance: emulsion of essential oils with surfactant; for Estimated Particle Size: micelle of essential oils with surfactant. The text has this: Since there are literally thousands of surfactants, many of which fulfill these criteria, it would be a very difficult task to examine every one of them on an individual basis. […]

In the case of “DL-2-pyrrolidone-5-carboxylic acid salt of ethyl N-cocoyl-L-arginate”, the “HLB Value” in data set [1] was over 20.
`CCCCCCCCCCCCCCCCCC(=O)OCCO` [Glycol stearate LIPO EGDS, Glycol stearate]: in data set [2], the Appearance worked out at 2 phase and the “Estimated Particle Size” value is “very large^1”. The HLB in data set [1] came out at 2.0.
As to “Glyceryl dilaurate [Glyceryl dilaurate Lexemul GDL]”, in data set [2], the Appearance result is listed as “not dispersible” and the “Estimated Particle Size” value is recorded as “very large^1”. Also, the HLB in data set [1] is listed as 2.4.
As to “Cocamidopropyl betaine [Tego Betaine ZF]”, in data set [2], the Appearance entry is “transparent” and the “Estimated Particle Size” value was “≧0.05u”.
For the compound `CCCCCCCCCCCCOS(=O)(=O)[O-].[Na+]` [Dodecyl sulfate, sodium salt], the “HLB Value” in data set [1] is “˜40”.
